# Data published in US20250346613A1, “BORIC ACID PROTEASOME INHIBITOR AND USE THEREOF” (ARTIVILA BIOPHARMA, priority 2022, published 2025).
# Columns and labels:
# [1] = Blood concentration measurement of orally-administrated mice; type: in vivo, C57BL/6JNifdc mice; conditions: C57BL/6JNifdc, mouse, plasma, oral, 30 mg/kg
# Protocol: The C57BL/6JNifdc mice used in this experiment were provided by Zhejiang Vital River Laboratory Animal Technology Co., Ltd. The compounds were dissolved in DMSO/Solutol/Saline (v/v/v=10/10/80) as a stock solution (3 mg/mL). The stock solution was administrated orally to 6 C57BL/6JNifdc mice at a dose of 30 mg/kg. Blood was collected from the orbital venous plexus at 0.5 h, 1 h, 1.5 h, and 2 h after oral administration.
# Approximately 200 μL of blood samples were collected into EDTAK2 Blood Collection tubes and then immediately centrifuged at 10,000 rpm for 5 min. 66 μL of plasma supernatant was added with 198 μL of acetonitrile (Energy), the resulting mixture was shaken on a vortex for 5 min, and then immediately centrifuged at 13000 rpm for 8 min. 200 μL of supernatant was taken for blood compound concentration measurement.
# The compound was accurately weighed and dissolved in acetonitrile to a concentration of 100 μg/mL. 50 μL of compound was pipetted and added to 4.95 mL of acetonitrile/water (v/v=3/1) solution to obtain 1000 ng/mL mother liquid. 650 μL of the mother liquid was taken and sequentially diluted with a solution of acetonitrile/water (v/v=3/1) in a 2-fold gradient to obtain standard samples with various concentrations of 500 ng/mL, 250 ng/mL, 125 ng/mL, 62.5 ng/mL, and 31.25 ng/mL.
# Standard solutions with concentrations of 1000 ng/mL, 500 ng/mL, 250 ng/mL, 125 ng/mL, 62.5 ng/mL, and 31.25 ng/mL were measured by using LC-MS (LC-MS 2020+LC-2030 Plus, Shimadzu) SIM mode to obtain a calibration curve. The treated blood samples were measured by this method and then subjected to quantitative analysis by using the calibration curve to obtain compound concentration data of each treated blood sample.
# The data were exported and the average blood compound concentration at each sampling time was calculated.
# Blood compound concentration=compound concentration in treated blood sample×4/molecular weight of the compound. The average blood compound concentration is the average of the compound concentrations in the blood at each sampling time.
# [2] = background statement; cannot be used orally; cited from earlier work
# [3] = target: T1, β5c subunit of the 20S proteasome (Homo sapiens, UniProt P20618+P28074); test: Proteasome inhibitory activity, β5c subunit (Raji cells treated with compound, lysed, Suc-LLVY-AMC substrate); type: cell-based; conditions: proteasome from Raji cells incubated with compound 4 h
# T1 construct: The proteasome tested in the present disclosure was derived from Raji cells; endogenous in cells; host or cells: Raji cells
# Excerpt: In the present disclosure, the fluorescent peptide substrate Ac-Ala-Asn-Trp-AMC (abbreviated as Ac-ANW-AMC) and the […] kit containing a fluorescent peptide substrate Suc-Leu-Leu-Val-Tyr-AMC (abbreviated as Suc-LLVY-AMC) (Promega, Item No. G8660) were used to detect the activities of the β5i subunit and β5c subunit of the 20S proteasome, respectively.
# The proteasome tested in the present disclosure was derived from Raji cells, the fluorescent substrate Ac-ANW-AMC was purchased from Roche company, and other reagents were purchased from Sigma company. The experimental system was divided into two parts of cell lysis system and enzyme reaction system. […] The starting concentration of the compound (inhibitor) was 1 μM. It was diluted in a 3-fold serial dilution to a total of 8 concentrations, that is, the administration concentration can be 1 μM, 0.333 μM, 0.111 μM . . . , respectively, and the specific experimental process was described below.
# Raji cells (1×10^6 cells) cryopreserved in liquid nitrogen were thawed rapidly in a water bath at 37° C. The cell pellet was transferred to a 15 mL centrifuge tube, added with 9 mL of fresh medium (Gibco RPMI1640 added with 10% fetal bovine serum and 1% double antibiotics), centrifuged at 120 g for 5 min, inoculated to 25 mL cell culture flasks, and passaged once every 2-3 days.
# The compound was weighed and dissolved in DMSO to a concentration of 10 mM. The compound was then sequentially diluted to concentrations of 200 μM, 66.67 μM, 22.22 μM, 7.41 μM, 2.47 μM, 0.82 μM, 0.27 μM, and 0.091 μM with fresh medium. Raji cells in a good growth status were inoculated into a 48-well cell culture plate at 7×10^5 cells/mL.
# Raji cells in a good growth status were taken and counted. They were then inoculated to a 48-well cell culture plate at 7×10^5 cells/mL. Each 5 μL of the various concentrations of diluted compounds above were taken and added to the culture plate inoculated with cells, and the lowest concentration of compound was 0 μM. The drug bortezomib (Velcade) and ONX-0914 were used as the positive control compounds. All cells were incubated at 37° C. for 4 h.
# The compound-treated cells were sequentially transferred into 1.5 mL centrifuge tubes, centrifuged at 10000 rpm for 2 min, and the supernatants were removed. The cell pellet was resuspended in 1 mL of PBS, centrifuged at 10000 rpm for 2 min, and the supernatant was removed. Cells were resuspended by adding 100 μL of cell lysate (50 mM Tris of pH 7.5, 150 mM NaCl, 5 mM MgCl2, 5 mM ATP, 1 mM DTT, 0.01% NP-40, 1 mM Digitonin, and Cocktail), placed in an ice bath for 30 min, and centrifuged at 13000 rpm for 10 min.
# 2 mg of fluorescent peptide substrate AC-ANW-AMC was dissolved in 424.7 μL of DMSO to obtain an 8 mM stock solution, and stored at −20° C. The stock solution was diluted 100-fold to a final concentration of […] for use in the reaction system. The fluorescent peptide substrate Suc-LLVY-AMC was prepared according to the instructions of the Promega kit.
# Each 20 μL of the prepared proteasome solution above was added to a 96-well white luciferase microplate and added with 25 μL of AC-ANW-AM substrate buffer solution (50 mM Tris of pH 7.5, 150 mM NaCl, 5 mM MgCl2, 5 mM ATP, 80 uM Ac-ANW-AMC and 1 mM DTT) and 25 μL of Suc-LLVY-AMC substrate buffer solution for 10 min of reaction at 37° C. in the dark. Fluorescence values were read at 345 nm/445 nm by using a fluorence microplate reader.
# The data were exported and the inhibition rate in percentage was calculated according to the following formula: Inhibition rate=(maximum signal value-compound signal value)/(maximum signal value−blank signal value)×100%.
# Where the maximum signal was obtained from cell lysates treated with DMSO only, and the blank signal was obtained from wells containing only lysates.
# [4] = target: T2, β5i subunit of the 20S proteasome (Homo sapiens, UniProt P20618+P28062); test: Proteasome inhibitory activity, β5i subunit (Raji cells treated with compound, lysed, Ac-ANW-AMC substrate); type: cell-based; conditions: proteasome from Raji cells incubated with compound 4 h
# T2 construct: The proteasome tested in the present disclosure was derived from Raji cells; endogenous in cells; host or cells: Raji cells
# Outline: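 Raji cells were treated for 4 h at 37 °C with compound (from 1 μM, 3-fold, 8 concentrations), then lysed. Lysate activity was read 10 min at 37 °C with Ac-ANW-AMC (β5i) or Suc-LLVY-AMC (β5c) at 345/445 nm. Percent inhibition was relative to DMSO-treated lysate.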
# [5] = test system: MM.1S cell strain; test: Inhibitory activity of cell strain (CellTiter-Glo); type: cell-based; conditions: Homo sapiens, MM1.S, 72 h incubation
# Outline: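 Cells seeded at 1×10^5 per well in RPMI1640 complete medium for 24 h, then treated 72 h at 37 °C, 5% CO2 with 3-fold dilutions, final 5×10^−7 M down to 2.29×10^−10 M. CellTiter-Glo luminescence; inhibition calculated against DMSO-only cells and medium-only blanks.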
Compound,"concentration at 0.5 h ([1]; 0.5 h, read-out: Average blood compound concentration (μM) 0.5 h)","concentration at 1 h ([1]; 1.0 h, read-out: Average blood compound concentration (μM) 1.0 h)","concentration at 1.5 h ([1]; 1.5 h, read-out: Average blood compound concentration (μM) 1.5 h)","concentration at 2 h ([1]; 2.0 h, read-out: Average blood compound concentration (μM) 2.0 h)",bioavailability (oral) [2],IC50 [3],IC50 [4],IC50 [5]
"CC(C)C[C@H](NC(=O)[C@H](Cc1ccccc1)NC(=O)c1cnccn1)B(O)O [Bortezomib, bortezomib, reference compound]",2 µM,1.3 µM,1 µM,0.9 µM,low bioavailability,–,–,–
"Cc1ccc(C[C@H](NC(=O)C(Cc2ccccc2)C(=O)NCc2ccc3[nH]ccc3c2)B(O)O)cc1 (stereo partly drawn) [Example 90, ((1R)-1-(3-(((1H-indol-5-yl)methyl)amino)-2-benzyl-3-oxopropionamido)-2-(p-tolyl)ethyl)boric acid]",–,–,–,–,–,≤ 50 nM,≤ 50 nM,≤ 50 nM
"CC(C(=O)NCc1ccc(Cl)cc1Cl)C(=O)N[C@@H](Cc1coc2ccccc12)B(O)O (stereo partly drawn) [Example 60, ((1R)-2-(benzofuran-3-yl)-1-(3-((2,4-dichlorobenzyl)amino)-2-methyl-3-oxopropionamido)ethyl) boric acid]",–,–,–,–,–,≤ 50 nM,≤ 50 nM,≤ 50 nM
"Cc1ccc(C[C@H](NC(=O)C(C)C(=O)NCc2ccccc2)B(O)O)cc1 (stereo partly drawn) [Example 38, ((1R)-1-(3-(benzylamino)-2-methyl-3-oxopropionamido)-2-(p-tolyl)ethyl)boric acid]",–,–,–,–,–,50 to 200 nM,50 to 200 nM,200 to 500 nM
"CC(C)C[C@H](NC(=O)C(C)C(=O)NC1CCCCC1)B(O)O (stereo partly drawn) [Example 41, ((1R)-1-(3-(cyclohexylamino)-2-methyl-3-oxopropionamido)-3-methylbutyl)boric acid]",–,–,–,–,–,50 to 200 nM,≤ 50 nM,50 to 200 nM
"COc1cccc(CNC(=O)C(CC2CC2)C(=O)N[C@@H](Cc2coc3ccccc23)B(O)O)c1 (stereo partly drawn) [Example 81, ((1R)-2-(benzofuran-3-yl)-1-(2-(cyclopropylmethyl)-3-((3-methoxybenzyl)amino)-3-oxopropionamido)ethyl)boric acid]",–,–,–,–,–,≤ 50 nM,≤ 50 nM,≤ 50 nM
"COc1cccc(CNC(=O)C(Cc2ccccc2)C(=O)N[C@@H](CC(C)C)B(O)O)c1 (stereo partly drawn) [Example 66, ((1R)-1-(2-benzyl-3-((3-methoxybenzyl)amino)-3-oxopropionamido)-3-methylbutyl)boronic acid]",–,–,–,–,–,≤ 50 nM,≤ 50 nM,≤ 50 nM
"CC(C(=O)NCc1cccc(-c2ccccc2)n1)C(=O)N[C@@H](Cc1ccccc1)B(O)O (stereo partly drawn) [Example 1, ((1R)-1-(2-methyl-3-oxo-3-(((6-phenylpyridin-2-yl)methyl)amino)propionylamino)-2-phenylethyl)boric acid]",–,–,–,–,–,50 to 200 nM,50 to 200 nM,50 to 200 nM
"COc1cccc(CNC(=O)C(C)C(=O)N[C@@H](Cc2ccc(C)cc2)B(O)O)c1 (stereo partly drawn) [Example 43, ((1R)-1-(3-((3-methoxybenzyl)amino)-2-methyl-3-oxopropionamido)-2-(p-tolyl)ethyl)boric acid]",–,–,–,–,–,≤ 50 nM,≤ 50 nM,≤ 50 nM
"COc1cccc(CNC(=O)C(CC2CC2)C(=O)N[C@@H](Cc2ccccc2)B(O)O)c1 (stereo partly drawn) [Example 3, ((1R)-1-(2-(cyclopropylmethyl)-3-((3-methoxybenzyl)amino)-3-oxopropionylamimo)-2-phenylethyl)boric acid]",–,–,–,–,–,≤ 50 nM,≤ 50 nM,≤ 50 nM
